From US20250230193A1, “CYCLIC COMPOUND HAVING SELECTIVE KRAS INHIBITORY EFFECT ON HRAS AND NRAS” (CHUGAI SEIYAKU KABUSHIKI KAISHA, priority 2022, published 2025)
Where a SMILES comes first, the peptide text is derived from it. Bridges are numbered along the chain shown (N, C = ends). [ ]: non-standard residue; d: D form. The star is where a group is joined. hPhe(3-Cl-4-CF3) = N[C@@H](CCc1ccc(C(F)(F)F)c(Cl)c1)C(=O)O; NPrPhe(4-CF3) = CCCN[C@@H](Cc1ccc(C(F)(F)F)cc1)C(=O)O; NMeGly(cPent) = CN[C@H](C(=O)O)C1CCCC1; NMeD = CN[C@@H](CC(=O)O)C(=O)O; NMeL = CN[C@@H](CC(C)C)C(=O)O; Morpholide = C1CN(*)CCO1; Ac5c = NC1(C(=O)O)CCCC1; NEtG = CCNCC(=O)O; Sar = CNCC(=O)O

How the values were obtained:
[1] = target: GDP-bound HRAS wild-type protein (Homo sapiens, UniProt P01112); experiment: Binding to HRAS by surface plasmon resonance (SPR), Single Cycle Kinetics
Chain of GDP-bound HRAS wild-type protein (P01112 whole entry): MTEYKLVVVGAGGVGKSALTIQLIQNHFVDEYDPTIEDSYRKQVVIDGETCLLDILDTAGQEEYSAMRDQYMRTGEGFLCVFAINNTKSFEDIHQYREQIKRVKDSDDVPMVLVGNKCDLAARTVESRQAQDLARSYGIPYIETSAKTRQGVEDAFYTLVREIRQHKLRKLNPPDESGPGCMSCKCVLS

[2] = target: GDP-bound NRAS wild-type protein (Homo sapiens, UniProt P01111); experiment: Binding to NRAS by surface plasmon resonance (SPR), Single Cycle Kinetics
Chain of GDP-bound NRAS wild-type protein (P01111 whole entry): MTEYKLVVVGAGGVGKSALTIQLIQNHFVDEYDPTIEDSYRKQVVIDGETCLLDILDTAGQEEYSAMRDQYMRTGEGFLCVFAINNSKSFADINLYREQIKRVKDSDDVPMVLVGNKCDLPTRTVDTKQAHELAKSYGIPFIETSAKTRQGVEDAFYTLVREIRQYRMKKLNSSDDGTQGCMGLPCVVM

[3] = SPR, GDP-bound wild-type proteins

## CC[C@H](C)[C@@H]1NC(=O)[C@@H]2CCCCCCc3ccc(cc3)C[C@@H](C(=O)N(C)CC(=O)N[C@@H](CCc3ccc(C(F)(F)F)c(OC)c3)C(=O)N3C[C@H](OC4CCC4)C[C@H]3C(=O)NC3(CC(C)(C)C3)C(=O)N(C)[C@@H](C3CCCC3)C(=O)N(C)[C@H](C(=O)N(C)C)CC(=O)N2C)N2CC/C=C\C[C@@H](C2=O)N(C)C(=O)CN(C)C1=O [PP3068]
[1]; [3]
  HRAS/KRAS (ratio of KD value with respect to GDP-bound HRAS wild-type protein to KD value with respect to KRAS): B (a compound having 3 or more and less than 10 is denoted as B)
[2]; [3]
  NRAS/KRAS (ratio of KD value with respect to GDP-bound NRAS wild-type protein to KD value with respect to KRAS): A (a compound having 10 or more and less than 20 is denoted as A)

## CCO[C@@H]1C[C@H]2C(=O)NC3(CCC3)C(=O)N(C)[C@@H](C3CCCC3)C(=O)N(C)[C@H](C(=O)N3CCOCC3)CC(=O)N(C)C(C)(C)C(=O)N[C@@H]([C@@H](C)CC)C(=O)N(C)CC(=O)N(C)[C@H]3CCCCN(C3=O)[C@@H](Cc3ccc(C(F)(F)F)cc3)C(=O)N(C)CC(=O)N[C@@H](CCc3cc(F)c(C(F)(F)F)c(F)c3)C(=O)N2C1 [PP0722]
[1]; SPR
  HRAS/KRAS (ratio of KD value with respect to GDP-bound HRAS wild-type protein to KD value with respect to KRAS): B (a compound having 3 or more and less than 10 is denoted as B)
[2]; SPR
  NRAS/KRAS (ratio of KD value with respect to GDP-bound NRAS wild-type protein to KD value with respect to KRAS): C (A compound having a KD ratio of 0.1 or more and less than 3 is denoted as C)

## CCO[C@@H]1C[C@H]2C(=O)NC3(CCC3)C(=O)N(C)[C@@H](C3CCCC3)C(=O)N(C)[C@H](C(=O)N(C)C)CC(=O)N(C)[C@@H](CC3CCCC3)C(=O)N[C@@H]([C@@H](C)CC)C(=O)N(C)CC(=O)N(C)[C@H]3CCCCN(C3=O)[C@@H](Cc3ccc(C(F)(F)F)cc3)C(=O)N(C)CC(=O)N[C@@H](CCc3cc(F)c(C(F)(F)F)c(F)c3)C(=O)N2C1 [PP0700]
[1]; SPR
  HRAS/KRAS (ratio of KD value with respect to GDP-bound HRAS wild-type protein to KD value with respect to KRAS): B (a compound having 3 or more and less than 10 is denoted as B)
[2]; SPR
  NRAS/KRAS (ratio of KD value with respect to GDP-bound NRAS wild-type protein to KD value with respect to KRAS): C (A compound having a KD ratio of 0.1 or more and less than 3 is denoted as C)

## CCC[C@H]1C(=O)N[C@@H]([C@@H](C)CC)C(=O)N(C)CC(=O)N(C)[C@H]2C/C=C\CCN(C2=O)[C@@H](Cc2ccc(C(F)(F)F)cc2)C(=O)N(C)CC(=O)N[C@@H](CCc2ccc3ccn(C)c3c2)C(=O)N2C[C@H](OCC)C[C@H]2C(=O)NC2(CC(C)(C)C2)C(=O)N(C)[C@@H](C2CCCC2)C(=O)N(C)[C@H](C(=O)N(C)C)CC(=O)N1C [PP2901]
[1]; class symbols
  HRAS/KRAS (ratio of KD value with respect to GDP-bound HRAS wild-type protein to KD value with respect to KRAS): A (a compound having 10 or more and less than 20 is denoted as A)
[2]; class symbols
  NRAS/KRAS (ratio of KD value with respect to GDP-bound NRAS wild-type protein to KD value with respect to KRAS): A (a compound having 10 or more and less than 20 is denoted as A)

## CCO[C@@H]1C[C@H]2C(=O)NC3(CCC3)C(=O)N(C)[C@@H](C3CCCC3)C(=O)N(C)[C@H](C(=O)N3CCOCC3)CC(=O)N(C)C[C@@H](C)C(=O)N[C@@H]([C@@H](C)CC)C(=O)N(C)CC(=O)N(C)[C@H]3CCCCN(C3=O)[C@@H](Cc3ccc(C(F)(F)F)cc3)C(=O)N(C)CC(=O)N[C@@H](CCc3cc(F)c(C(F)(F)F)c(F)c3)C(=O)N2C1 [PP0721]
[1]; SPR
  HRAS/KRAS (ratio of KD value with respect to GDP-bound HRAS wild-type protein to KD value with respect to KRAS): B (a compound having 3 or more and less than 10 is denoted as B)
[2]; SPR
  NRAS/KRAS (ratio of KD value with respect to GDP-bound NRAS wild-type protein to KD value with respect to KRAS): B (a compound having 3 or more and less than 10 is denoted as B)

## CCC[C@H]1C(=O)N[C@@H]([C@@H](C)CC)C(=O)N(C)CC(=O)N(C)[C@H]2C/C=C\CCN(C2=O)[C@@H](Cc2ccc(C)cc2)C(=O)N(C)CC(=O)N[C@@H](CCc2cc(Cl)c3sccc3c2)C(=O)N2C[C@H](OCC)C[C@H]2C(=O)NC2(CC(C)(C)C2)C(=O)N(C)[C@@H](C2CCCC2)C(=O)N(C)[C@H](C(=O)N(C)C)CC(=O)N1C [PP2947]
[1]; class symbols
  HRAS/KRAS (ratio of KD value with respect to GDP-bound HRAS wild-type protein to KD value with respect to KRAS): B (a compound having 3 or more and less than 10 is denoted as B)
[2]; class symbols
  NRAS/KRAS (ratio of KD value with respect to GDP-bound NRAS wild-type protein to KD value with respect to KRAS): B (a compound having 3 or more and less than 10 is denoted as B)

## CCCN1C(=O)CN(C)C(=O)CNC(=O)[C@H]([C@@H](C)CC)NC(=O)[C@H](CC(C)C)N(C)C(=O)C[C@@H](C(=O)N2CCOCC2)N(C)C(=O)[C@H](C2CCCC2)N(C)C(=O)C2(CCCC2)NC(=O)[C@@H]2CCCN2C(=O)[C@H](CCc2ccc(C(F)(F)F)c(Cl)c2)NC(=O)CN(CC)C(=O)[C@@H]1Cc1ccc(C(F)(F)F)cc1 [PP1969] ([NMeL]IG[Sar][NPrPhe(4-CF3)][NEtG][hPhe(3-Cl-4-CF3)]P[Ac5c][NMeGly(cPent)][NMeD]-Morpholide; lactam N-11)
[1]; KD ratio, GDP-bound HRAS wild-type vs GDP-bound KRAS wild-type, SPR
  HRAS/KRAS (ratio of KD value for HRAS to KD value for KRAS): C (A compound having a KD ratio of 0.1 or more and less than 3 is denoted as C)
[2]; KD ratio, GDP-bound NRAS wild-type vs GDP-bound KRAS wild-type, SPR
  NRAS/KRAS (ratio of KD value for NRAS to KD value for KRAS): B (a compound having 3 or more and less than 10 is denoted as B)

## CCO[C@@H]1C[C@H]2C(=O)NC3(CC(C)(C)C3)C(=O)N(C)[C@@H](C(CC)CC)C(=O)N(C)[C@H](C(=O)N3CCCC3)CC(=O)N(C)[C@@H](C)C(=O)N[C@@H]([C@@H](C)CC)C(=O)N(C)CC(=O)N(C)[C@H]3C/C=C\CCN(C3=O)[C@@H](Cc3ccc(C)cc3)C(=O)N(C)CC(=O)N[C@@H](CCc3ccc(C(F)(F)F)c(Cl)c3)C(=O)N2C1 [PP2152]
[1]; SPR, GDP-bound HRAS wild-type vs GDP-bound KRAS wild-type
  HRAS/KRAS (ratio of KD value with respect to HRAS to KD value with respect to KRAS): A (a compound having 10 or more and less than 20 is denoted as A)
[2]; SPR, GDP-bound NRAS wild-type vs GDP-bound KRAS wild-type
  NRAS/KRAS (ratio of KD value with respect to NRAS to KD value with respect to KRAS): AA (a compound having 20 or more is denoted as AA)

## CCO[C@@H]1C[C@H]2C(=O)NC3(CC(C)(C)C3)C(=O)N(C)[C@@H](CC(C)(C)C)C(=O)N(C)[C@H](C(=O)N(C)C)CC(=O)N(C)[C@@H](C(C)C)C(=O)N[C@@H]([C@@H](C)CC)C(=O)N(C)CC(=O)N(C)[C@H]3C/C=C\CCN(C3=O)[C@@H](Cc3ccc(C(F)(F)F)cc3)C(=O)N(C)CC(=O)N[C@@H](CCc3ccc(C(F)(F)F)c(OC)c3)C(=O)N2C1 [PP2773]
[1]; class symbols
  HRAS/KRAS (ratio of KD value with respect to GDP-bound HRAS wild-type protein to KD value with respect to KRAS): B (a compound having 3 or more and less than 10 is denoted as B)
[2]; class symbols
  NRAS/KRAS (ratio of KD value with respect to GDP-bound NRAS wild-type protein to KD value with respect to KRAS): B (a compound having 3 or more and less than 10 is denoted as B)

## CCC[C@H]1C(=O)N[C@@H]([C@@H](C)CC)C(=O)N(C2CC2)CC(=O)N(C)[C@H]2C/C=C\CCN(C2=O)[C@@H](Cc2ccc(C)cc2)C(=O)N(C)CC(=O)N[C@@H](CCc2ccc(C(F)(F)F)c(CC)c2)C(=O)N2C[C@H](OCC)C[C@H]2C(=O)NC2(CC(C)(C)C2)C(=O)N(C)[C@@H](C2CCCC2)C(=O)N(C)[C@H](C(=O)N(C)C)CC(=O)N1C [PP2870]
[1]; class symbols
  HRAS/KRAS (ratio of KD value with respect to GDP-bound HRAS wild-type protein to KD value with respect to KRAS): A (a compound having 10 or more and less than 20 is denoted as A)
[2]; class symbols
  NRAS/KRAS (ratio of KD value with respect to GDP-bound NRAS wild-type protein to KD value with respect to KRAS): A (a compound having 10 or more and less than 20 is denoted as A)

## CCC(CC)[C@H]1C(=O)N(C)[C@H](C(=O)N(C)C)CC(=O)N(C)[C@@H](COC)C(=O)N[C@@H]([C@@H](C)CC)C(=O)N(C)CC(=O)N(C)[C@H]2C/C=C\CCN(C2=O)[C@@H](Cc2ccc(C(F)(F)F)cc2)C(=O)N(C)CC(=O)N[C@@H](CCc2cc(F)c(C(F)(F)F)c(F)c2)C(=O)N2CC[C@H]2C(=O)NC2(CC(C)(C)C2)C(=O)N1C [PP2918]
[1]; class symbols
  HRAS/KRAS (ratio of KD value with respect to GDP-bound HRAS wild-type protein to KD value with respect to KRAS): A (a compound having 10 or more and less than 20 is denoted as A)
[2]; class symbols
  NRAS/KRAS (ratio of KD value with respect to GDP-bound NRAS wild-type protein to KD value with respect to KRAS): AA (a compound having 20 or more is denoted as AA)
